We go through 12 compounds from the SangsterLogP compilation.

SMILES strings stand for the structures. Where a SMILES comes first, the peptide text is derived from it. The star is where a group is joined. X1 = O=C(CCCCSc1ncnc2nc[nH]c12)*

Broadly, the logD is the decadic logarithm of the distribution of all forms, ionised or not, between an organic phase and buffer at a given pH. Read a low logD as lower lipophilicity.

The data set is described as follows: from Bachrata, M.; Bezakova, Z.; Pesák, M.; Blesova, M. (1983). Study of physicochemical properties of substances with cancerostatic effect. II. Study of lipo-hydrophilic parameters. Acta Fac. Pharm. …. As to conditions: pH 7.0.
`CCOC(=O)CNC(=O)CNC(=O)CCCCSc1ncnc2nc[nH]c12` gave a logD of 0.5.
The same measure for `CCOC(=O)C[C@H](NC(=O)CCCCSc1ncnc2nc[nH]c12)C(=O)OCC`: 1.33; for `CCOC(=O)[C@H](CC(C)C)NC(=O)CNC(=O)CNC(=O)CCCCSc1ncnc2nc[nH]c12`: 1.07.
The same measure for `CCOC(=O)C(NC(=O)CCCCSc1ncnc2nc[nH]c12)c1ccccc1` (configuration not stated): 1.13; for `CCOC(=O)C(NC(=O)CCCCSc1ncnc2[nH]cnc12)C(C)C` (racemic): 1.89.
In the case of `CCOC(=O)C(C)NC(=O)CCCCSc1ncnc2nc[nH]c12` (configuration not stated), the logD came out at 1.51.
Take `CCCCOC(=O)CNC(=O)CCCCSc1ncnc2nc[nH]c12`: the logD was 1.39.
The same measure for `CCOC(=O)CNC(=O)CCCCSc1ncnc2nc[nH]c12`: 0.91.
With `CCCOC(=O)CNC(=O)CCCCSc1ncnc2nc[nH]c12` the figure was 1.37; with `c1ncc2[nH]cnc2n1`, -0.21; with `CCOC(=O)CNC(=O)CNC(=O)CNC(=O)CCCCSc1ncnc2nc[nH]c12`, 0.21.
The same measure for `CCOC(=O)CNC(=O)CNC(=O)CNC(=O)CNC(=O)CCCCSc1ncnc2nc[nH]c12` (X1-GGGG-OEt): -0.23.
